Reference: patent publication EP1529535A1, “Isolation of a circulating human lipolytic peptide” (IPF PharmaCeuticals GmbH, priority 2003, dated 2005)
pEC50: −log10 of the molar value.

Test system: 3T3L1-derived differentiated mouse adipocytes
Type: cell-based
Method: According to the invention 3T3L1-derived differentiated mouse adipocytes can be used as appropriate cell-system. These cells are treated with fractions of human hemofiltrate and identified using a glycerol-estimation method (GPO-Trinder reagent, Sigma, Deisenhofen, Germany) lipolytic activity. […] It was subsequently isolated in several chromatographic steps using reverse-phase and cation-exchange chromatographic material. 3T3L1 cells were obtained from ATCC. They were grown in DMEM with 10% FCS, penicillin, streptomycin, and L-glutamine for proliferation. For differentiation into the mature adipocyte phenotype, the cells were plated onto 96 well plates (Costar) and treated for three days with differentiation medium (DMEM with 10% FCS, dexamethasone, insulin, L-glutamine and 8-Br-cAMP) and subsequently for three to six days with sustainment medium (DMEM with 10% FCS and L-glutamine). Cells differentiated as described above were then treated for five hours with the hemofiltrate fractions diluted in serum-free medium. An aliquot of the cell supernatant was mixed with the glycerol-estimation-solution (GPO-Trinder Reagent, Sigma, Garching, Germany) and incubated for 15 minutes. Then the absorbance was measured at 540 nm in a 96 well plate ELISA reader (Dynex). […] The colored product is measured at 540 nm in a spectrophotometer. […]

## CSCC[C@H](NC(=O)[C@H](CCCNC(=N)N)NC(=O)[C@H](Cc1ccc(O)cc1)NC(=O)[C@@H]1CCCN1C(=O)CNC(=O)[C@H](CCC(=O)O)NC(=O)[C@H](CC(=O)O)NC(=O)[C@H](CCCCN)NC(=O)[C@H](CCCCN)NC(=O)[C@H](CCC(=O)O)NC(=O)[C@H](C)N)C(=O)N[C@@H](CCC(=O)O)C(=O)N[C@@H](Cc1c[nH]cn1)C(=O)N[C@@H](Cc1ccccc1)C(=O)N[C@@H](CCCNC(=N)N)C(=O)N[C@@H](Cc1c[nH]c2ccccc12)C(=O)NCC(=O)N[C@@H](CO)C(=O)N1CCC[C@H]1C(=O)N1CCC[C@H]1C(=O)N[C@@H](CCCCN)C(=O)N[C@@H](CC(=O)O)C(=O)O [β-MSH, aekkdegp yrmehfrwgs ppkd]
  pEC50: ~7.70

## CSCC[C@H](NC(=O)[C@H](CCCNC(=N)N)NC(=O)[C@H](Cc1ccc(O)cc1)NC(=O)[C@@H]1CCCN1C(=O)CNC(=O)[C@H](CCC(=O)O)NC(=O)[C@H](CC(=O)O)NC(=O)[C@H](CCCCN)NC(=O)[C@H](CCCCN)NC(=O)[C@H](CCC(=O)O)NC(=O)[C@H](C)NC(=O)[C@H](C)NC(=O)[C@@H](N)C(C)C)C(=O)N[C@@H](CCC(=O)O)C(=O)N[C@@H](Cc1c[nH]cn1)C(=O)N[C@@H](Cc1ccccc1)C(=O)N[C@@H](CCCNC(=N)N)C(=O)N[C@@H](Cc1c[nH]c2ccccc12)C(=O)NCC(=O)N[C@@H](CO)C(=O)N1CCC[C@H]1C(=O)N1CCC[C@H]1C(=O)N[C@@H](CCCCN)C(=O)N[C@@H](CC(=O)O)C(=O)O [vaaekkdegp yrmehfrwgs ppkd]
  pEC50: ~7.70
